Assays:
Experiment in all cases: Pre-emergent herbicidal activity (Table A)
Format in all cases: in vivo
[1] = tested on: Pennsylvania Smartweed; conditions: pre-emergence, Pesw, 11.2 kg/ha, 10-14 days, read-out: herbicidal rating (% inhibition)
Procedure: (§1) The herbicidal ratings used in Tables A and B were assigned according to a scale based on the percent inhibition of each plant species. The herbicide rating symbols in Tables A and B are defined as follows: […]
(§2) One set of pre-emergent tests was conducted as follows:
(§3) Topsoil was placed in a pan and compacted to a depth of 0.95 to 1.27 cm. from the top of the pan. A predetermined number of seeds of each of several monocotyledonous and dicotyledonous annual plant species and/or vegetative propagules of various perennial plant species were placed on top of the soil. The soil required to level fill a pan after seeding or adding vegetative propagules was weighed into another pan. A known amount of the test compound dissolved or suspended in an organic solvent or water and applied in acetone or water as a carrier was thoroughly mixed with this cover soil, and the herbicide/soil mixture was used as a cover layer for the previously prepared pan.
(§4) The plant species usually regarded as weeds which were utilized in one set of pre-emergent activity tests, the data for which are shown in Table A, are identified by letter headings printed diagonally above the columns according to the following legend: […]

[2] = tested on: Common Lambsquarters; conditions: Chenopodium album, pre-emergence, Colq, 11.2 kg/ha, 10-14 days, read-out: herbicidal rating (% inhibition)
Procedure: as §1, §2, §3, §4

[3] = tested on: Barnyardgrass; conditions: Echinochloa crus-galli, pre-emergence, Bygr, 11.2 kg/ha, 10-14 days, read-out: herbicidal rating (% inhibition)
Procedure: as §1, §2, §3, §4

[4] = tested on: Morningglory; conditions: Ipomoea, pre-emergence, Mogl, 11.2 kg/ha, 10-14 days, read-out: herbicidal rating (% inhibition)
Procedure: as §1, §2, §3, §4

[5] = tested on: Canada thistle; conditions: Cirsium arvense, pre-emergence, Cath, 11.2 kg/ha, 10-14 days, read-out: herbicidal rating (% inhibition)
Procedure: as §1, §2, §3, §4

[6] = tested on: Yellow Nutsedge; conditions: Cyperus, pre-emergence, Yens, 11.2 kg/ha, 10-14 days, read-out: herbicidal rating (% inhibition)
Procedure: as §1, §2, §3, §4

[7] = tested on: Quackgrass; conditions: pre-emergence, Rhqg, 11.2 kg/ha, 10-14 days, read-out: herbicidal rating (% inhibition)
Procedure: as §1, §2, §3, §4

[8] = tested on: Velvetleaf; conditions: Abutilon theophrasti, pre-emergence, Vele, 11.2 kg/ha, 10-14 days, read-out: herbicidal rating (% inhibition)
Procedure: as §1, §2, §3, §4

[9] = tested on: Rhizome Johnsongrass; conditions: Sorghum halepense, pre-emergence, Rhjg, 11.2 kg/ha, 10-14 days, read-out: herbicidal rating (% inhibition)
Procedure: as §1, §2, §3, §4

[10] = tested on: Downy Brome; conditions: Bromus tectorum, pre-emergence, Dobr, 11.2 kg/ha, 10-14 days, read-out: herbicidal rating (% inhibition)
Procedure: as §1, §2, §3, §4

[11] = tested on: Cocklebur; conditions: Xanthium strumarium, pre-emergence, Cobu, 11.2 kg/ha, 10-14 days, read-out: herbicidal rating (% inhibition)
Procedure: as §1, §2, §3, §4

| Structure (SMILES) | inhibition at 11200 g/ha [1] | inhibition at 11200 g/ha [2] | inhibition at 11200 g/ha [3] | inhibition at 11200 g/ha [4] | inhibition at 11200 g/ha [5] | inhibition at 11200 g/ha [6] | inhibition at 11200 g/ha [7] | inhibition at 11200 g/ha [8] | inhibition at 11200 g/ha [9] | inhibition at 11200 g/ha [10] | inhibition at 11200 g/ha [11] |
| --- | --- | --- | --- | --- | --- | --- | --- | --- | --- | --- | --- |
| COC(=O)c1c(C(F)(F)F)nc(OC)c(C(=O)SC)c1CC(C)C [Compound 33, 3-pyridinecarboxylic acid, 6-methoxy-4-(2-methylpropyl)-5-[(methylthio)carbonyl]-2-(trifluoromethyl)-, methyl ester] | 75 to 100% | 75 to 100% | 75 to 100% | 75 to 100% | 50 to 74% | 50 to 74% | 75 to 100% | 75 to 100% | 75 to 100% | 75 to 100% | 25 to 49% |
| COC(=O)c1c(OC)nc(C(F)(F)F)c(C2=NC(C)(C)CS2)c1CC(C)C [Compound 75, 3-pyridinecarboxylic acid, 5-(4,5-dihydro-4,4-dimethy1-2-thiazolyl)-2-methoxy-4-(2-methylpropyl)-6-(trifluoromethyl)-, methyl ester] | 75 to 100% | 75 to 100% | 75 to 100% | 75 to 100% | 75 to 100% | 75 to 100% | 75 to 100% | 75 to 100% | 25 to 49% | 75 to 100% | 50 to 74% |
| CCCc1c(C(=O)OC)c(OC)nc(C(F)(F)F)c1C(=O)OC [Compound 91, 3,5-pyridinedicarboxylic acid, 2-methoxy-4-propy1-6-(trifluoromethyl)-, dimethyl ester] | 75 to 100% | 75 to 100% | 75 to 100% | 75 to 100% | 75 to 100% | 75 to 100% | 75 to 100% | 75 to 100% | 75 to 100% | 75 to 100% | 25 to 49% |
| CN=C(SC)c1c(C(F)(F)F)nc(OC)c(C(=O)OC)c1CC(C)C [Compound 41, 3-pyridinecarboxylic acid, 2-methoxy-5-[(methylimino)(methylthio)methyl]-4-(2-methylpropyl)-6-(trifluoromethyl)-, methyl ester] | 75 to 100% | 75 to 100% | 75 to 100% | 75 to 100% | 75 to 100% | 0 to 24% | 75 to 100% | 75 to 100% | 0 to 24% | 75 to 100% | 25 to 49% |
| CN=C(SC)c1c(OC)nc(C(F)(F)F)c(C(=O)OC)c1CC(C)C [Compound 55, 3-pyridinecarboxylic acid, 6-methoxy-5-[(methylimino)(methylthio)methyl]-4-(2-methylpropyl)-2-(trifluoromethyl)-, methyl ester] | 75 to 100% | 75 to 100% | 75 to 100% | 25 to 49% | 0 to 24% | 0 to 24% | 75 to 100% | 25 to 49% | 0 to 24% | 75 to 100% | 0 to 24% |
| COC(=O)c1c(C(F)(F)F)nc(OC)c(N=CSC)c1CC(C)C [Compound 58, 3-pyridinecarboxylic acid, 6-methoxy-4-(2-methylpropyl)-5-[(methylthiomethylene)]amino-2-(trifluoromethyl)-, methyl ester] | 75 to 100% | 75 to 100% | 75 to 100% | 25 to 49% | 0 to 24% | 0 to 24% | 75 to 100% | 25 to 49% | 0 to 24% | 75 to 100% | 0 to 24% |
| CCOc1nc(C(F)(F)F)c(C(=NC)SC)c(CC(C)C)c1C(=O)OC [Compound 46, 3-pyridinecarboxylic acid, 2-ethoxy-5-[(methylimino)(methylthio)methyl]-4-(2-methylpropyl)-6-(trifluoromethyl)-, methyl ester] | 75 to 100% | 75 to 100% | 75 to 100% | 75 to 100% | 75 to 100% | 0 to 24% | 75 to 100% | 50 to 74% | 0 to 24% | 75 to 100% | 0 to 24% |
| COC(=O)c1c(OC)nc(C(F)(F)F)c(C(=O)n2cncn2)c1CC(C)C [Compound 60, 3-pyridinecarboxylic acid, 2-methoxy-4-(2-methylpropyl)-5-(1H-1,2,4-triazo1-1-ylcarbonyl)-6-(trifluoromethyl)-, methyl ester] | 75 to 100% | 75 to 100% | 75 to 100% | 75 to 100% | 75 to 100% | 0 to 24% | 75 to 100% | 75 to 100% | 75 to 100% | 75 to 100% | 25 to 49% |
| CCOc1nc(C(F)(F)F)c(C(=O)SC)c(CC(C)C)c1C(=O)SC [Compound 19, 3,5-pyridinedicarbothioic acid, 2-ethoxy-4-(2-methylpropyl)-6-(trifluoromethyl)-, S,S-dimethyl ester] | 75 to 100% | 75 to 100% | 75 to 100% | 50 to 74% | 25 to 49% | 0 to 24% | 75 to 100% | 75 to 100% | 0 to 24% | – | 25 to 49% |
| CCOc1nc(C(F)(F)F)c(C(=O)OC)c(CC(C)C)c1C(=O)O [Compound 18, 3,5-pyridinedicarboxylic acid, 2-ethoxy-4-(2-methylpropyl)-6-(trifluoromethyl)-, 5-methyl ester] | 0 to 24% | 50 to 74% | 0 to 24% | 0 to 24% | 0 to 24% | 0 to 24% | 0 to 24% | 0 to 24% | 0 to 24% | – | 25 to 49% |
| CCOc1nc(C(F)(F)F)c(C(=O)OC)c(CC(C)C)c1C(=O)N(C)C [Compound 17, 3-pyridinecarboxylic acid, 5-[(dimethylamino)carbony]-6-ethoxy-4-(2-methylpropyl)-2-(trifluoromethyl)-, methyl ester] | 0 to 24% | 50 to 74% | 75 to 100% | 0 to 24% | 0 to 24% | 0 to 24% | 0 to 24% | 0 to 24% | 0 to 24% | – | 0 to 24% |
